Assay results: US9156829B2, “Cycloalkyl and heterocycloalkyl compounds as orexin receptor antagonists” (Takeda Pharmaceutical Company Limited, priority 2014, dated 2015)

Experiments:
human orexin receptor 1 = human orexin receptor 1 (Homo sapiens (Human), UniProt O43613); assay: Orexin antagonist activity, intracellular calcium FLIPR assay, RBL-2H3 cells expressing human orexin receptor 1; type: cell-based; conditions: RBL-2H3 cells stably expressing human orexin receptor 1; orexin-A at approx. 80% maximal response; compound added 15 minutes before; read-out: Human Orexin1R IC50
human orexin receptor 1, sequence (O43613 whole entry): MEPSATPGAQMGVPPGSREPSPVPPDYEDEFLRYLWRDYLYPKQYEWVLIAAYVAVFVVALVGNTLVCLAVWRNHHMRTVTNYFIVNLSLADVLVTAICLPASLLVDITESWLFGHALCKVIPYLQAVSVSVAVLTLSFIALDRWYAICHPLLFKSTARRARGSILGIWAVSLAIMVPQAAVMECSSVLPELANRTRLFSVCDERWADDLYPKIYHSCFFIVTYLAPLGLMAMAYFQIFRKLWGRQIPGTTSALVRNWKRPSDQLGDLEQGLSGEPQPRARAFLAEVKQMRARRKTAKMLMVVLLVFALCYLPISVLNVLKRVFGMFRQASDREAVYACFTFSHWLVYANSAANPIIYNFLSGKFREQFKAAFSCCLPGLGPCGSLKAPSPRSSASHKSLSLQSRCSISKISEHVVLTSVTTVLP

human orexin receptor 2 = human orexin receptor 2 (Homo sapiens (Human), UniProt O43614); assay: Orexin antagonist activity, intracellular calcium FLIPR assay, RBL-2H3 cells expressing human orexin receptor 2; type: cell-based; conditions: RBL-2H3 cells stably expressing human orexin receptor 2; orexin-A at approx. 80% maximal response; compound added 15 minutes before; read-out: Human Orexin2R IC50
human orexin receptor 2, sequence (O43614 whole entry): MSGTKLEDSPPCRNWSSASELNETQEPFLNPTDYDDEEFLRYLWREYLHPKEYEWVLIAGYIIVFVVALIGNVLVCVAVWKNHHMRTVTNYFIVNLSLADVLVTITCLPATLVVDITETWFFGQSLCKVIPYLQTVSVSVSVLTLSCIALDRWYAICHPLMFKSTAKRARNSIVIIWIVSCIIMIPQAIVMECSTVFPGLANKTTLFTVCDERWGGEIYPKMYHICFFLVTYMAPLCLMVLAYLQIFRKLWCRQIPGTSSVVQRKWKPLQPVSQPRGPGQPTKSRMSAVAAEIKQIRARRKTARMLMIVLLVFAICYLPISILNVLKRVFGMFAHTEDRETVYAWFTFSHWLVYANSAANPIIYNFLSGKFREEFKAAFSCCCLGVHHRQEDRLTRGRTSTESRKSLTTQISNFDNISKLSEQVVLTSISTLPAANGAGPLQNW

IC50 (human orexin receptor 1) [µM]	IC50 (human orexin receptor 2) [µM]	SMILES
0.093	> 10	O=C(N[C@H]1CCC[C@@H]1Nc1cnc(C(F)(F)F)cn1)c1cccc(F)c1-n1nccn1 [Example 53, 3-Fluoro-2-(2H-1,2,3-triazol-2-yl)-N-[(1S,2S)-2-{[5-(trifluoromethyl)pyrazin-2-yl]amino}cyclopentyl]benzamide]
0.95	> 10	O=C(N[C@H]1CCC[C@@H]1Nc1cnc(C(F)(F)F)cn1)c1cc(C(F)(F)F)ccc1-n1ccnn1 [Example 54, 2-(1H-1,2,3-Triazol-1-yl)-5-(trifluoromethyl)-N-[(1S,2S)-2-{[5-(trifluoromethyl)pyrazin-2-yl]amino}cyclopentyl]benzamide]
0.761	> 10	O=C(N[C@H]1CCC[C@@H]1Nc1cnc(C(F)(F)F)cn1)c1cc(Cl)ccc1-n1ccnn1 [Example 55, 5-Chloro-2-(1H-1,2,3-triazol-1-yl)-N-[(1S,2S)-2-{[5-(trifluoromethyl)pyrazin-2-yl]amino}cyclopentyl]benzamide]
0.166	> 10	O=C(N[C@H]1CCC[C@@H]1Nc1cnc(C(F)(F)F)cn1)c1c(-n2nccn2)ccc(F)c1F [Example 56, 2,3-Difluoro-6-(2H-1,2,3-triazol-2-yl)-N-[(1S,2S)-2-{[5-(trifluoromethyl)pyrazin-2-yl]amino}cyclopentyl]benzamide]
0.038	> 10	O=C(N[C@H]1CCC[C@@H]1Nc1cnc(C(F)(F)F)cn1)c1cc(C2CC2)ccc1-n1nccn1 [Example 57, 5-Cyclopropyl-2-(2H-1,2,3-triazol-2-yl)-N-[(1S,2S)-2-{[5-(trifluoromethyl)pyrazin-2-yl]amino}cyclopentyl]benzamide]
0.934	> 10	O=C(N[C@H]1CCC[C@@H]1Nc1cnc(C(F)(F)F)cn1)c1ncccc1OC(F)(F)F [Example 58, 3-(Trifluoromethoxy)-N-[(1S,2S)-2-{[5-(trifluoromethyl)pyrazin-2-yl]amino}cyclopentyl]pyridine-2-carboxamide]
0.161	> 10	O=C(N[C@H]1CCC[C@@H]1Nc1cnc(C(F)(F)F)cn1)c1cc(Cl)ccc1-n1cccn1 [Example 59, 5-Chloro-2-(1H-pyrazol-1-yl)-N-[(1S,2S)-2-{[5-(trifluoromethyl)pyrazin-2-yl]amino}cyclopentyl]benzamide]
0.852	> 10	CCOc1cccnc1C(=O)N[C@H]1CCC[C@@H]1Nc1cnc(C(F)(F)F)cn1 [Example 60, 3-Ethoxy-N-[(1S,2S)-2-{[5-(trifluoromethyl)pyrazin-2-yl]amino}cyclopentyl]pyridine-2-carboxamide]
0.321	> 10	O=C(N[C@H]1CCC[C@@H]1Nc1cnc(C(F)(F)F)cn1)c1cc(F)cc(F)c1-n1nccn1 [Example 61, 3,5-Difluoro-2-(2H-1,2,3-triazol-2-yl)-N-[(1S,2S)-2-{[5-(trifluoromethyl)pyrazin-2-yl]amino}cyclopentyl]benzamide]
0.457	> 10	O=C(N[C@H]1CCC[C@@H]1Nc1cnc(C(F)(F)F)cn1)c1ccccc1C(F)(F)F [Example 62, 2-(Trifluoromethyl)-N-[(1S,2S)-2-{[5-(trifluoromethyl)pyrazin-2-yl]amino}cyclopentyl]benzamide]
0.45	> 10	O=C(N[C@H]1CCC[C@@H]1Nc1cnc(C(F)(F)F)cn1)c1ncccc1C1CC1 [Example 63, 3-Cyclopropyl-N-[(1S,2S)-2-{[5-(trifluoromethyl)pyrazin-2-yl]amino}cyclopentyl]pyridine-2-carboxamide]
0.057	> 10	O=C(N[C@H]1CCC[C@@H]1Nc1cnc(C(F)(F)F)cn1)c1c(F)ccc(F)c1-n1nccn1 [Example 64, 3,6-Difluoro-2-(2H-1,2,3-triazol-2-yl)-N-[(1S,2S)-2-{[5-(trifluoromethyl)pyrazin-2-yl]amino}cyclopentyl]benzamide]
0.797	> 10	O=C(N[C@H]1CCC[C@@H]1Nc1cnc(C(F)(F)F)cn1)c1ccccc1C(F)F [Example 65, 2-(Difluoromethyl)-N-[(1S,2S)-2-{[5-(trifluoromethyl)pyrazin-2-yl]amino}cyclopentyl]benzamide]
0.18	> 10	O=C(N[C@H]1CCC[C@@H]1Nc1cnc(C(F)(F)F)cn1)c1c(F)cccc1C1CC1 [Example 66, 2-Cyclopropyl-6-fluoro-N-[(1S,2S)-2-{[5-(trifluoromethyl)pyrazin-2-yl]amino}cyclopentyl]benzamide]
0.891	> 10	Cc1ccc(-n2nccn2)c(C(=O)N[C@H]2CCC[C@@H]2Nc2ccc(C(F)(F)F)nc2)c1 [Example 67, 5-Methyl-2-(2H-1,2,3-triazol-2-yl)-N-[(1S,2S)-2-{[6-(trifluoromethyl)pyridin-3-yl]amino}cyclopentyl]benzamide]
0.297	1.61	COc1cccc(OC)c1C(=O)N(C1CCC1)[C@H]1CCC[C@@H]1Nc1ccc(C(F)(F)F)cn1 [Example 68, N-Cyclobutyl-2,6-dimethoxy-N-[(1S,2S)-2-{[5-(trifluoromethyl)pyridin-2-yl]amino}cyclopentyl]benzamide]

IC50 (human orexin receptor 1) [µM]	IC50 (human orexin receptor 2) [µM]	SMILES
0.321	> 10	O=C(N[C@H]1CCC[C@@H]1Nc1ccc(C(F)(F)F)cn1)c1ccccc1Cl [Example 69, 2-Chloro-N-[(1S,2S)-2-{[5-(trifluoromethyl)pyridin-2-yl]amino}cyclopentyl]benzamide]
0.678	> 10	O=C(N[C@H]1CCC[C@@H]1Nc1ncc(C(F)(F)F)cn1)c1ccccc1Cl [Example 70, 2-Chloro-N-[(1S,2S)-2-{[5-(trifluoromethyl)pyrimidin-2-yl]amino}cyclopentyl]benzamide]
0.722	7.6	COc1cccc(F)c1C(=O)N[C@H]1CCC[C@@H]1Nc1ccc(C(F)(F)F)cn1 [Example 71, 2-Fluoro-6-methoxy-N-[(1S,2S)-2-{[5-(trifluoromethyl)pyridin-2-yl]amino}cyclopentyl]benzamide]
0.479	> 10	O=C(N[C@H]1CCC[C@@H]1Nc1ccc(C(F)(F)F)cn1)c1c(F)cccc1F [Example 72, 2,6-Difluoro-N-[(1S,2S)-2-{[5-(trifluoromethyl)pyridin-2-yl]amino}cyclopentyl]benzamide]
0.248	> 10	CN(c1cnc(C(F)(F)F)cn1)[C@H]1CCC[C@@H]1NC(=O)c1ccccc1-n1nccn1 [Example 73, N-[(1S,2S)-2-{Methyl[5-(trifluoromethyl)pyrazin-2-yl]amino}cyclopentyl]-2-(2H-1,2,3-triazol-2-yl)benzamide]
0.308	> 10	CN(c1cnc(C(F)(F)F)cn1)[C@H]1CCC[C@@H]1NC(=O)c1cc(F)ccc1-n1nccn1 [Example 74, 5-Fluoro-N-[(1S,2S)-2-{methyl[5-(trifluoromethyl)pyrazin-2-yl]amino}cyclopentyl]-2-(2H-1,2,3-triazol-2-yl)benzamide]
0.279	> 10	CN(c1cnc(C(F)(F)F)cn1)[C@H]1CCC[C@@H]1NC(=O)c1c(F)cccc1-n1nccn1 [Example 75, 2-Fluoro-N-[(1S,2S)-2-{methyl[5-(trifluoromethyl)pyrazin-2-yl]amino}cyclopentyl]-6-(2H-1,2,3-triazol-2-yl)benzamide]
0.033	> 10	Cc1nc(C(F)(F)F)cnc1N[C@H]1CCC[C@@H]1NC(=O)c1ncccc1-n1nccn1 [Example 76, N-[(1S,2S)-2-{[3-Methyl-5-(trifluoromethyl)pyrazin-2-yl]amino}cyclopentyl]-3-(2H-1,2,3-triazol-2-yl)pyridine-2-carboxamide]
0.012	> 10	C[C@]1(Nc2cnc(C(F)(F)F)cn2)CCC[C@@H]1NC(=O)c1ncccc1-n1nccn1 [Example 77, N-[(1S,2S)-2-Methyl-2-{[5-(trifluoromethyl)pyrazin-2-yl]amino}cyclopentyl]-3-(2H-1,2,3-triazol-2-yl)pyridine-2-carboxamide]
0.019	> 10	Cc1nc(C(F)(F)F)cnc1N[C@H]1CCC[C@@H]1NC(=O)c1ccccc1-n1nccn1 [Example 78, N-[(1S,2S)-2-{[3-Methyl-5-(trifluoromethyl)pyrazin-2-yl]amino}cyclopentyl]-2-(2H-1,2,3-triazol-2-yl)benzamide]
0.035	> 10	Cc1nc(C(F)(F)F)cnc1N[C@H]1CCC[C@@H]1NC(=O)c1ccccc1-c1ncccn1 [Example 79, N-[(1S,2S)-2-{[3-Methyl-5-(trifluoromethyl)pyrazin-2-yl]amino}cyclopentyl]-2-(pyrimidin-2-yl)benzamide]
0.035	> 10	Cc1nc(C(F)(F)F)cnc1N[C@H]1CCC[C@@H]1NC(=O)c1cc(F)ccc1-c1ncccn1 [Example 80, 5-Fluoro-N-[(1S,2S)-2-{[3-methyl-5-(trifluoromethyl)pyrazin-2-yl]amino}cyclopentyl]-2-(pyrimidin-2-yl)benzamide]
0.007	> 10	C[C@]1(Nc2cnc(C(F)(F)F)cn2)CCC[C@@H]1NC(=O)c1ccccc1-n1nccn1 [Example 81, N-[(1S,2S)-2-Methyl-2-{[5-(trifluoromethyl)pyrazin-2-yl]amino}cyclopentyl]-2-(2H-1,2,3-triazol-2-yl)benzamide]
0.021	7.54	CC1(Nc2cnc(C(F)(F)F)cn2)CCCC1NC(=O)c1ccccc1-n1nccn1 (centres unmarked) [Example 82, N-(2-Methyl-2-{[5-(trifluoromethyl)pyrazin-2-yl]amino}cyclopentyl)-2-(2H-1,2,3-triazol-2-yl)benzamide]
2.5	1.4	C[C@@]1(Nc2cnc(C(F)(F)F)cn2)CCC[C@H]1NC(=O)c1ccccc1-n1nccn1 [Example 83, N-[(1R,2R)-2-Methyl-2-{[5-(trifluoromethyl)pyrazin-2-yl]amino}cyclopentyl]-2-(2H-1,2,3-triazol-2-yl)benzamide]
